According to ChEMBL document CHEMBL1124853, “Synthesis and antiallergy activity of N-[2-(dimethylamino)ethyl]-4-aryl-1-piperazinecarboxamide derivatives” (1990):

Tests used:
Rattus norvegicus [1] = assay: Oral antiallergic activity in rat passive foot anaphylaxis (PFA) assay as percent change in volume of foot edema at a dose 31.6 mg/kg compared to -50% of aminophylline at 100 mg/kg; format: functional
Rattus norvegicus [2] = assay: Oral antiallergic activity in rat passive foot anaphylaxis (PFA) assay as percent change in volume of foot edema at a dose 31.6 mg/kg compared to -65% of aminophylline at 100 mg/kg; format: functional
Rattus norvegicus [3] = assay: Oral antiallergic activity in rat passive foot anaphylaxis (PFA) assay as percent change in volume of foot edema at a dose 31.6 mg/kg compared to -62% of aminophylline at 100 mg/kg; format: functional
Cavia porcellus [4] = assay: Oral antiallergic activity in the Guinea Pig Anaphylaxis (GPA) at the dose of 31.6 mg/kg; 4 guinea pigs were challenged with the antigen
Rattus norvegicus [5] = assay: Oral antiallergic activity in rat passive foot anaphylaxis (PFA) assay as percent change in volume of foot edema at a dose 10 mg/kg compared to -62% of aminophylline at 100 mg/kg; format: functional
Rattus norvegicus [6] = assay: Oral antiallergic activity in rat passive foot anaphylaxis (PFA) assay as percent change in volume of foot edema at a dose 10 mg/kg compared to -69% of aminophylline at 100 mg/kg; format: functional
Cavia porcellus [7] = assay: Oral antiallergic activity in the Guinea Pig Anaphylaxis (GPA) at the dose of 31.6 mg/kg; 6 guinea pigs were challenged with the antigen; format: functional
Rattus norvegicus [8] = assay: Oral antiallergic activity in rat passive foot anaphylaxis (PFA) assay as percent change in volume of foot edema at a dose 31.6 mg/kg compared to -63% of aminophylline at 100 mg/kg; format: functional
Rattus norvegicus [9] = assay: Oral antiallergic activity in rat passive foot anaphylaxis (PFA) assay as percent change in volume of foot edema at a dose 31.6 mg/kg compared to -73% of aminophylline at 100 mg/kg; format: functional
Rattus norvegicus [10] = assay: Oral antiallergic activity in rat passive foot anaphylaxis (PFA) assay as percent change in volume of foot edema at a dose 31.6 mg/kg compared to -64% of aminophylline at 100 mg/kg; format: functional
Rattus norvegicus [11] = assay: Oral antiallergic activity in rat passive foot anaphylaxis (PFA) assay as percent change in volume of foot edema at a dose 31.6 mg/kg compared to -78% of aminophylline at 100 mg/kg; format: functional
Rattus norvegicus [12] = assay: Oral antiallergic activity in rat passive foot anaphylaxis (PFA) assay as percent change in volume of foot edema at a dose 31.6 mg/kg compared to -77% of aminophylline at 100 mg/kg; format: functional
Rattus norvegicus [13] = assay: Oral antiallergic activity in rat passive foot anaphylaxis (PFA) assay as percent change in volume of foot edema at a dose 31.6 mg/kg compared to -69% of aminophylline at 100 mg/kg; format: functional
Rattus norvegicus [14] = assay: Oral antiallergic activity in rat passive foot anaphylaxis (PFA) assay as percent change in volume of foot edema at a dose 31.6 mg/kg compared to -68% of aminophylline at 100 mg/kg; format: functional
Rattus norvegicus [15] = assay: Oral antiallergic activity in rat passive foot anaphylaxis (PFA) assay as percent change in volume of foot edema at a dose 31.6 mg/kg compared to -74% of aminophylline at 100 mg/kg; format: functional
Rattus norvegicus [16] = assay: Oral antiallergic activity in rat passive foot anaphylaxis (PFA) assay as percent change in volume of foot edema at a dose 31.6 mg/kg compared to -66% of aminophylline at 100 mg/kg; format: functional
Cavia porcellus [17] = assay: Oral antiallergic activity in the Guinea Pig Anaphylaxis (GPA) at the dose of 200 mg/kg; 3 guinea pigs were challenged with the antigen; format: functional
Rattus norvegicus [18] = assay: Oral antiallergic activity in rat passive foot anaphylaxis (PFA) assay as percent change in volume of foot edema at a dose 10 mg/kg compared to -77% of aminophylline at 100 mg/kg; format: functional
Rattus norvegicus [19] = assay: Oral antiallergic activity in rat passive foot anaphylaxis (PFA) assay as percent change in volume of foot edema at a dose 31.6 mg/kg compared to -67% of aminophylline at 100 mg/kg; format: functional
Rattus norvegicus [20] = assay: Oral antiallergic activity in rat passive foot anaphylaxis (PFA) assay as percent change in volume of foot edema at a dose 31.6 mg/kg compared to -81% of aminophylline at 100 mg/kg; format: functional
Rattus norvegicus [21] = assay: Oral antiallergic activity in rat passive foot anaphylaxis (PFA) assay as percent change in volume of foot edema at a dose 31.6 mg/kg compared to -58% of aminophylline at 100 mg/kg; format: functional
Rattus norvegicus [22] = assay: Oral antiallergic activity in rat passive foot anaphylaxis (PFA) assay as percent change in volume of foot edema at a dose 31.6 mg/kg compared to -71% of aminophylline at 100 mg/kg; format: functional
Rattus norvegicus [23] = assay: Oral antiallergic activity in rat passive foot anaphylaxis (PFA) assay as percent change in volume of foot edema at a dose 31.6 mg/kg compared to -61% of aminophylline at 100 mg/kg; format: functional
Rattus norvegicus [24] = assay: Oral antiallergic activity in rat passive foot anaphylaxis (PFA) assay as percent change in volume of foot edema at a dose 31.6 mg/kg compared to -60% of aminophylline at 100 mg/kg; format: functional
Rattus norvegicus [25] = assay: Oral antiallergic activity in rat passive foot anaphylaxis (PFA) assay as percent change in volume of foot edema at a dose 31.6 mg/kg compared to -79% of aminophylline at 100 mg/kg; format: functional
Rattus norvegicus [26] = assay: Oral antiallergic activity in rat passive foot anaphylaxis (PFA) assay as percent change in volume of foot edema at a dose 31.6 mg/kg compared to -76% of aminophylline at 100 mg/kg; format: functional
Rattus norvegicus [27] = assay: Oral antiallergic activity in rat passive foot anaphylaxis (PFA) assay as percent change in volume of foot edema at a dose 31.6 mg/kg compared to -90% of aminophylline at 100 mg/kg; format: functional
Rattus norvegicus [28] = assay: Oral antiallergic activity in rat passive foot anaphylaxis (PFA) assay as percent change in volume of foot edema at a dose 31.6 mg/kg compared to -80% of aminophylline at 100 mg/kg; format: functional
Rattus norvegicus [29] = assay: Oral antiallergic activity in rat passive foot anaphylaxis (PFA) assay as percent change in volume of foot edema at a dose 3.16 mg/kg compared to -84% of aminophylline at 100 mg/kg
Cavia porcellus [30] = assay: Oral antiallergic activity in the Guinea Pig Anaphylaxis (GPA) at the dose of 10 mg/kg; 4 guinea pigs were challenged with the antigen
Rattus norvegicus [31] = assay: Oral antiallergic activity in rat passive foot anaphylaxis (PFA) assay as percent change in volume of foot edema at a dose 10 mg/kg compared to -76% of aminophylline at 100 mg/kg; format: functional

Compound: CN(C)CCNC(=O)N1CCN(c2ccc(Cl)c(Cl)c2)CC1
- Change (Rattus norvegicus [1]): -17%

Compound: CN(C)CCNC(=O)N1CCN(c2ccc(Cl)cc2)CC1
- Change (Rattus norvegicus [2]): -61%
- Change (Rattus norvegicus [3]): 27%
- No. of guinea pigs protected (Cavia porcellus [4]): 0
- Change (Rattus norvegicus [5]): -48%

Compound: COc1ccc(N2CCN(C(=O)NCCN(C)C)CC2)cc1
- Change (Rattus norvegicus [6]): -29%
- Change (Rattus norvegicus [2]): -49%

Compound: Cn1c(=O)c2[nH]cnc2n(C)c1=O.Cn1c(=O)c2[nH]cnc2n(C)c1=O.NCCN [AMINOPHYLLINE]
- No. of guinea pigs protected (Cavia porcellus [7]): 4

Compound: CN(C)CCN(C)C(=O)N1CCN(c2ccccc2)CC1
- Change (Rattus norvegicus [2]): -38%

Compound: CN1CCN(CCNC(=O)N2CCN(c3ccccc3)CC2)CC1
- Change (Rattus norvegicus [8]): -7%

Compound: CN(C)CCNC(=O)N1CCN(Cc2ccccc2)CC1
- Change (Rattus norvegicus [9]): -10%

Compound: CN(C)CCNC(=O)N1CCN(c2cccc(F)c2)CC1
- Change (Rattus norvegicus [10]): -31%

Compound: COc1ccc(N2CCN(C(=O)NCCN(C)C)CC2)cc1OC
- Change (Rattus norvegicus [8]): -16%

Compound: CCOC(=O)c1ccc(N2CCN(C(=O)NCCN(C)C)CC2)cc1
- Change (Rattus norvegicus [11]): -5%

Compound: COc1cc(N2CCN(C(=O)NCCN(C)C)CC2)cc(OC)c1OC
- Change (Rattus norvegicus [3]): 9%

Compound: CN(C)CCNC(=O)N1CCN(c2ccc(N(C)C)cc2)CC1
- Change (Rattus norvegicus [12]): -29%

Compound: COc1cccc(N2CCN(C(=O)NCCN(C)C)CC2)c1
- Change (Rattus norvegicus [2]): -67%
- Change (Rattus norvegicus [5]): -36%

Compound: CN(C)CCNC(=O)N1CCN(c2ccccc2Cl)CC1
- Change (Rattus norvegicus [6]): -16%
- Change (Rattus norvegicus [2]): -53%

Compound: CN(C)CCNC(=O)N1CCN(c2ccc(N)cc2)CC1
- Change (Rattus norvegicus [9]): -22%

Compound: O=C(NCCCN1CCOCC1)N1CCN(c2ccccc2)CC1
- Change (Rattus norvegicus [13]): -28%

Compound: O=C(NCCN1CCCC1)N1CCN(c2ccccc2)CC1
- Change (Rattus norvegicus [14]): -45%

Compound: CC(=O)Nc1ccc(N2CCN(C(=O)NCCN(C)C)CC2)cc1
- Change (Rattus norvegicus [15]): 5%

Compound: Cc1ccc(N2CCN(C(=O)NCCN(C)C)CC2)cc1
- Change (Rattus norvegicus [2]): -46%

Compound: CN(CCNC(=O)N1CCN(c2ccccc2)CC1)c1ccccc1
- Change (Rattus norvegicus [8]): -41%

Compound: NC(=O)N1CCN(c2ccccc2)CC1
- Change (Rattus norvegicus [15]): 10%

Compound: CN(C)CCNC(=O)N1CCN(C(c2ccccc2)c2ccccc2)CC1
- Change (Rattus norvegicus [16]): -30%

Compound: CCN(CC)C(=O)N1CCN(C)CC1 [DIETHYLCARBAMAZINE]
- No. of guinea pigs protected (Cavia porcellus [17]): 0

Compound: CN(C)CCNC(=O)N1CCN(c2ccccc2F)CC1
- Change (Rattus norvegicus [14]): -37%

Compound: CN(C)CCNC(=O)N1CCN(c2cccc(Cl)c2)CC1
- Change (Rattus norvegicus [18]): -32%
- Change (Rattus norvegicus [19]): -78%

Compound: CN(C)CCNC(=O)N1CCN(c2ccccn2)CC1
- Change (Rattus norvegicus [6]): -13%
- Change (Rattus norvegicus [2]): -54%

Compound: O=C(NCCN1CCOCC1)N1CCN(c2ccccc2)CC1
- Change (Rattus norvegicus [15]): 10%

Compound: COc1ccccc1N1CCN(C(=O)NCCN(C)C)CC1
- Change (Rattus norvegicus [15]): -21%

Compound: CCN1CCCC(NC(=O)N2CCN(c3ccccc3)CC2)C1 (configuration not stated)
- Change (Rattus norvegicus [20]): -58%

Compound: CN(C)CCNC(=O)N1CCN(c2ccc([N+](=O)[O-])cc2)CC1
- Change (Rattus norvegicus [21]): -26%

Compound: CN(C)CCOC(c1ccccc1)c1ccccc1 [DIPHENHYDRAMINE]
- No. of guinea pigs protected (Cavia porcellus [4]): 1

Compound: CN(C)CCNC(=O)N1CCN(C(=O)c2ccccc2)CC1
- Change (Rattus norvegicus [22]): -4%

Compound: O=C(NCCc1ccccn1)N1CCN(c2ccccc2)CC1
- Change (Rattus norvegicus [15]): -3%

Compound: CN(C)CCNC(=O)N1CCN(c2ccc(Br)cc2)CC1
- Change (Rattus norvegicus [23]): -31%

Compound: O=C(N1CCN(c2ccccc2)CC1)N1CCN(c2ccccc2)CC1
- Change (Rattus norvegicus [13]): -10%

Compound: CC(=O)c1ccc(N2CCN(C(=O)NCCN(C)C)CC2)cc1
- Change (Rattus norvegicus [22]): -25%

Compound: CCN(CC)CCNC(=O)N1CCN(c2ccccc2)CC1
- Change (Rattus norvegicus [24]): -47%

Compound: CN(C)CCNC(=O)N1CCN(c2cccc(C(F)(F)F)c2)CC1
- Change (Rattus norvegicus [23]): -18%

Compound: CN(C)CCNC(=O)N(C)CCN(C)c1ccccc1
- Change (Rattus norvegicus [25]): -23%

Compound: CN(C)CCCNC(=O)N1CCN(c2ccccc2)CC1
- Change (Rattus norvegicus [15]): -13%

Compound: CN1CCN(CCCNC(=O)N2CCN(c3ccccc3)CC2)CC1
- Change (Rattus norvegicus [20]): -23%

Compound: O=C(NCCN1CCCCCC1)N1CCN(c2ccccc2)CC1
- Change (Rattus norvegicus [26]): -47%

Compound: CN(C)C(=O)N1CCN(c2ccccc2)CC1
- Change (Rattus norvegicus [22]): -24%

Compound: CN(CCNC(=O)N1CCN(c2ccccc2)CC1)Cc1ccccc1
- Change (Rattus norvegicus [1]): -35%

Compound: CN1CCN(C(=O)N2CCN(c3ccccc3)CC2)CC1
- Change (Rattus norvegicus [14]): -7%

Compound: CN(C)CCNC(=O)N1CCN(c2ccccc2)CC1
- Change (Rattus norvegicus [6]): -22%
- Change (Rattus norvegicus [27]): -68%

Compound: CN(C)CCNC(=O)N1CCN(c2ccc(C(N)=O)cc2)CC1
- Change (Rattus norvegicus [28]): 0%

Compound: CN(C)CCNC(=O)N1CCN(c2ccc(F)cc2)CC1
- Change (Rattus norvegicus [19]): -87%
- Change (Rattus norvegicus [29]): -35%
- No. of guinea pigs protected (Cavia porcellus [30]): 1
- Change (Rattus norvegicus [31]): -63%

Compound: CN(C)CCNC(=O)N1CCN(c2ccc(C#N)cc2)CC1
- Change (Rattus norvegicus [28]): -31%

Compound: O=C(NCCN1CCCCC1)N1CCN(c2ccccc2)CC1
- Change (Rattus norvegicus [14]): -49%
